Values quoted from earlier work in patent publication US4801577A, “Nonapeptide and decapeptide analogs of LHRH useful as LHRH antagonists” (Syntex (U.S.A.) Inc., priority 1987, dated 1989).

Test system: rat mast cells
Conditions: rat mast cells in vitro

| Substance | ED50 for histamine release [µg/mL] |
| --- | --- |
| LHRH: natural releasing hormone LHRH, a decapeptide comprised of naturally occurring amino acids | 328 |
| (N-Ac-D-Nal(2)^1, D-pCl-Phe^2, D-Trp^3, D-Arg^6)LHRH | 0.2 |
| (N-Ac-D-Nal(2)^1, D-αMe-pCl-Phe^2, D-Pal(3)^3, D-Arg^6, hArg(Et2)^8, D-Ala^10)LHRH | 4.9 |
| (N-Ac-D-Nal(2)^1, pCl-Phe^2, D-Trp^3, D-Lys(iPr)^8,Lys(iPr)^6, D-Ala^10)LHRH | 6.6 |
| (N-Ac-D-Nal(2)^1, D-pCl-Phe^2, D-Trp^3, Arg^5, D-Tyr^6, D-Ala^10)LHRH | 2 |
